# Laboratory results published in patent US9340524B2, “Androgen receptor modulator and uses thereof” (Aragon Pharmaceuticals, Inc., priority 2013, dated 2016).
# Experiments:
# [1] = tested on: PTEN KO model of prostate cancer; test: PTEN KO genetically engineered mouse model of prostate cancer; format: in vivo, mice; details: for Efficacy: combined androgen blockade (castration + anti-androgen)
# Experimental: Ptenlox/lox; PB-Cre mice (age 6-8 months) are imaged by small animal MRI imaging core prior to and at the completion of treatment. All mice are castrated. Surgical castration is performed under anesthesia with isoflurane. Mice are monitored postoperatively for recovery.
# Mice are administered control vehicle or test article by oral gavage daily Monday through Friday schedule for a total of 35 days. MRI tumor volumes are reported for each mouse at time point zero (T0) at initiation of study and time point 35 days (T35) at completion of study. Changes in tumor volumes between T0 and T35 are calculated for individual mice and reported in waterfall plots. At study end, mice were euthanized by CO2 asphyxiation, and tissue was collected for histology, mRNA analysis, protein analysis and other analyses.
# LNCaP/AR cells = test: LNCaP/AR model for castrate resistant prostate cancer xenograft studies; format: in vivo, male SCID Hairless Outbred mice; details: for Efficacy on LNCaP/AR tumors: monotherapy at or near maximally efficacious dose
# Experimental: In some embodiments, overexpression of wild type androgen receptor 3-5 fold in the LNCaP (LNCaP/AR) cell line confers a castration resistant phenotype both in vitro and in vivo.
# Six to Seven week old male SCID Hairless Outbred mice (SHO, Charles Rivers Laboratories) underwent bilateral orchiectomy under isoflurane anesthesia. LNCaP/AR cells were grown in RPMI at 5% CO2, 37° C. Cells were spun down and re-suspended in 50% serum-free RPMI and 50% Matrigel at 1×10^7 cells/ml. LNCaP/AR cells were subcutaneously injected (100 μl/animal) on the right flank 3-5 days post castration. Tumor volume (length×width^2/2) was monitored weekly. When tumors reached an average volume of ˜200 mm^3 animals were randomized into treatment groups. During the treatment period tumor volume was monitored bi-weekly. At the termination of the study, tumors were collected and stored for further analyses. All compounds were administered daily by oral gavage. Statistical analyses were performed using Graphpad Prism.
# MDA MB 453 cells = test: MDA MB 453 breast cancer xenograft assay; format: in vivo, female SCID Hairless Outbred (SHO) mice; details: 30 mg/kg/day, daily for 28 days
# Experimental: Time release pellets (12.5 mg 5α-Dihydrotestosterone/60 days) were subcutaneously implanted into female SCID Hairless Outbred (SHO) mice. MDA MB 453 cells were grown in RPMI containing 10% FBS, 10 μg/ml insulin, 10 mM Sodium Pyruvate, 10 mM Non-Essential Amino Acids at 5% CO2, 37° C. Cells were spun down and re-suspended in 50% RPMI (serum free) and 50% Matrigel (BD, high concentration containing phenol red) at 1×10^7 cells/ml. MDA MB 453 cells were subcutaneously injected (100 μl/animal) on the right flank 2-3 days post pellet implantation. Tumor volume (length×width^2/2) was monitored bi-weekly. When tumors reached an average volume of ˜350 mm^3, animals were randomized and treatment was started. […] Tumor volume and body weight were monitored bi-weekly throughout the study. At the conclusion of the treatment period; plasma and tumor samples were taken for pharmacokinetic and pharmacodynamic analyses, respectively.
# metastatic CRPC = test: Phase II clinical trial, metastatic CRPC (treatment-naïve and post-abiraterone acetate cohorts); format: in vivo, human; details: for Patients with 12-week PSA decline of ≧50% from baseline: preliminary
# Text: (§1) The primary objective was to assess antitumor activity and PSA kinetics as defined by the Prostate Cancer Clinical Trials Working Group (PCWG2) criteria. […] The median time to PSA progression was not reached for the TN cohort during the preliminary 12-week period, and was 16 weeks in the PA cohort.
# non-metastatic CRPC = test: Phase II clinical trial, non-metastatic CRPC; format: in vivo, human; details: 240 mg/day
# Text: as §1
# The median time to PSA progression was not reached in this observed time period.
# [2] = tested on: non-castrate hormone-sensitive and bicalutamide-resistant human prostate cancer xenograft models; details: in vivo; cited from earlier work
# T877A AR mutant = target: T1, T877A AR mutant (Homo sapiens, UniProt P10275, T878A); details: cited from earlier work
# T1 sequence (P10275 1-920 T878A): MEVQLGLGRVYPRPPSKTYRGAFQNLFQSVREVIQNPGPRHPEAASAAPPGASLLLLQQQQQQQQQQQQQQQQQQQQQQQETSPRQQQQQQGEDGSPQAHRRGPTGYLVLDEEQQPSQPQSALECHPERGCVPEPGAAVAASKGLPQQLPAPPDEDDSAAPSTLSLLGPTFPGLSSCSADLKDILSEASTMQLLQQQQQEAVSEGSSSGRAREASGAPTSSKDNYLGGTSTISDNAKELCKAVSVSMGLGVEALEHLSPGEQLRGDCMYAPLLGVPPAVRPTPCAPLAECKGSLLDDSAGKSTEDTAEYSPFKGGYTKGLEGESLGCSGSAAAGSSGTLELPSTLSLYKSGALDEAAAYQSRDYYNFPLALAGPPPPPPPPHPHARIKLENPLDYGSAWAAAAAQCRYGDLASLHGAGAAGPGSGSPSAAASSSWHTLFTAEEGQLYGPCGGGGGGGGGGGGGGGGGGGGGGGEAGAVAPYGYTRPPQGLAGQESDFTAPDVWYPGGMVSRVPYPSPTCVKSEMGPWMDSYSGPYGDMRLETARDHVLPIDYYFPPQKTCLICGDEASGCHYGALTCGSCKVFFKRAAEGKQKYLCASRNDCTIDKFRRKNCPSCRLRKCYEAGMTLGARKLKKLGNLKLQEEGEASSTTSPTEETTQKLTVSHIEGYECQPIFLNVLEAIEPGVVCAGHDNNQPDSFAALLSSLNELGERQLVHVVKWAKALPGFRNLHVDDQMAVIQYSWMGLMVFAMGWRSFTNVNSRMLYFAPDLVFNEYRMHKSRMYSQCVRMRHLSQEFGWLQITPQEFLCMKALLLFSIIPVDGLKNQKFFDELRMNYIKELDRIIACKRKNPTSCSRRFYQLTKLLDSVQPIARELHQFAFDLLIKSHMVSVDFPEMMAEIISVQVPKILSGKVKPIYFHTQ
compound,measurement,setting,value
Cn1c(=O)n(-c2ccc(C(C)(C)C#N)cc2)c2c3cc(-c4cnc5ccccc5c4)ccc3ncc21 [BEZ-235],Anti-tumor activity,[1]; monotherapy,minimal anti-tumor activity
"Nc1cc(C(F)(F)F)c(-c2cc(N3CCOCC3)nc(N3CCOCC3)n2)cn1 [BKM120, 5-(2,6-dimorpholinopyrimidin-4-yl)-4-(trifluoromethyl)pyridin-2-amine]",Number of regressions > 50%,"LNCaP/AR cells; Table 4, BKM120 20 mg/kg alone",1/10
same,Number of regressions > 50%,"LNCaP/AR cells; Table 4, BKM120 40 mg/kg alone",0/9
same,Efficacy on LNCaP/AR tumors,LNCaP/AR cells,a range of efficacy from tumor growth inhibition to tumor stasis
COc1ccc(Cl)c(Nc2nc3ccccc3nc2NS(=O)(=O)c2cccc(NC(=O)C(C)(C)N)c2)c1 [SAR245408],Efficacy on LNCaP/AR tumors,LNCaP/AR cells,a range of efficacy from tumor growth inhibition to tumor stasis
"CNC(=O)c1ccc(N2C(=S)N(c3cnc(C#N)c(C(F)(F)F)c3)C(=O)C23CCC3)cc1F [4-[7-(6-cyano-5-trifluoromethylpyridin-3-yl)-8-oxo-6-thioxo-5,7-diazaspiro[3.4]oct-5-yl]-2-fluoro-N-methylbenzamide]",Number of Tumor Regressions,MDA MB 453 cells; +DHT,9/9
same,Number of Tumor Regressions,MDA MB 453 cells; −DHT,5/10
same,Mean tumor response of LNCaP/AR tumors,LNCaP/AR cells; 1 mg/kg/day,tumor stasis
same,Tumor response of LNCaP/AR tumors,LNCaP/AR cells; 10-30 mg/kg/day,nearly full regression of all treated LNCaP/AR tumors
same,Number of regressions > 50%,"LNCaP/AR cells; Table 4, 3 mg/kg/day alone, oral gavage daily",2/10
same,Number of regressions > 50%,"LNCaP/AR cells; Table 5, 3 mg/kg/day alone, oral gavage daily",1/10
same,Efficacy,[1],minimal efficacy
same,Tolerability,"metastatic CRPC; 240 mg oral, continuous daily dosing, NM-CRPC, TN mCRPC and post-abiraterone mCRPC",very well tolerated
same,Patients with 12-week PSA decline of ≧50% from baseline,"metastatic CRPC; PA cohort, 240 mg oral, continuous daily dosing",29%
same,Median time to PSA progression,"metastatic CRPC; PA cohort, 240 mg/day",16 weeks
same,Patients with 12-week PSA decline of ≧50% from baseline,"metastatic CRPC; TN cohort, 240 mg oral, continuous daily dosing",88%
same,Median time to PSA progression,"metastatic CRPC; TN cohort, preliminary 12-week period, 240 mg/day",not reached
same,Objective response rate (by RECIST),"metastatic CRPC; TN patients with measurable disease at baseline, 240 mg/day",63%
same,Patients with ≧50% decline in PSA as compared to baseline,non-metastatic CRPC; 12 weeks of treatment,91%
same,Patients with ≧50% decline in PSA,non-metastatic CRPC; 24 weeks,91%
same,Patients with ≧90% decline in PSA,non-metastatic CRPC; 24 weeks,55%
same,Median time to PSA progression,non-metastatic CRPC; observed time period,not reached
same,Tumor response,[2],partial or complete tumor regression
CC(C)(O)C(=O)Nc1ccc([N+](=O)[O-])c(C(F)(F)F)c1 [hydroxyflutamide],Agonist activity,T877A AR mutant,act as AR agonists
"CNC(=O)c1ccc(N2C(=S)N(c3ccc(C#N)c(C(F)(F)F)c3)C(=O)C2(C)C)cc1F [MDV3100, 4-(3-(4-cyano-3-(trifluoromethyl)phenyl)-5,5-dimethyl-4-oxo-2-thioxoimidazolidin-1-yl)-2-fluoro-N-methylbenzamide]",Efficacy,[1],minimal efficacy
CO[C@H]1C[C@@H]2CC[C@@H](C)[C@@](O)(O2)C(=O)C(=O)N2CCCC[C@H]2C(=O)O[C@H]([C@H](C)C[C@@H]2CC[C@@H](OCCO)[C@H](OC)C2)CC(=O)[C@H](C)/C=C(\C)[C@@H](O)[C@@H](OC)C(=O)[C@H](C)C[C@H](C)/C=C/C=C/C=C/1C [Everolimus],Number of regressions > 50%,"LNCaP/AR cells; Table 5, Everolimus 5 mg/kg/day alone",0/8
same,Number of regressions > 50%,"LNCaP/AR cells; Table 5, Everolimus 10 mg/kg/day alone",2/10
same,Efficacy on LNCaP/AR tumors,LNCaP/AR cells,a range of efficacy from tumor growth inhibition to tumor stasis
